Reference: patent publication US20040110802A1, “Antibacterial benzoic acid derivatives” (priority 2002, published 2004)
≈ marks a conversion by molar mass, not a printed value.

System: SAUR 9218
Experiment: MIC Test Method, standard agar dilution
Type: cell-based
Conditions: agar dilution, Mueller Hinton agar, incubated overnight at 35° C., lowest concentration that inhibits visible growth; for MIC: read-out: SAUR 9218 MIC
Outline: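 MIC (μg/ml) was read as the lowest drug level without visible growth of SAUR 9218 after overnight incubation at 35 °C. Inocula of about 10^4 to 10^5 cells per spot were applied to Mueller Hinton agar containing 2-fold serial compound dilutions.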

Structure (SMILES)	MIC	SAUR 9218 MIC
COc1ccc(-c2cc(C(=O)Nc3ccc(Br)cc3C(=O)O)nn2C)cc1	> 128 µg/mL	–
N#Cc1ccc(NC(=O)c2noc3ccc(S(=O)(=O)N4CCCC4)cc23)c(C(=O)O)c1	0.06 µg/mL (≈ 0.136 µM)	–
Cn1c(C(=O)Nc2ccc(C#N)cc2C(=O)O)cc2c(Br)ccc(NC(=O)Cc3ccccc3)c21	2 µg/mL (≈ 3.76 µM)	–
CC(=O)Oc1ccc2c(C(=O)Nc3ccc(C#N)cc3C(=O)O)noc2c1	1 µg/mL (≈ 2.74 µM)	–
N#Cc1ccc(NC(=O)c2cc3cccc(NC(=O)C4CC4c4ccccc4)c3[nH]2)c(C(=O)O)c1 (stereo not shown)	0.5 µg/mL (≈ 1.08 µM)	–
CCNc1ccc2onc(C(=O)Nc3ccc(C#N)cc3C(=O)O)c2c1	0.5 µg/mL (≈ 1.43 µM)	–
Cn1c(C(=O)Nc2ccc(C#N)cc2C(=O)O)cc2cccc(O)c21	1 µg/mL (≈ 2.98 µM)	–
N#Cc1ccc(NC(=O)c2ccc(N3CCCCC3)nc2)c(C(=O)O)c1	8 µg/mL (≈ 22.8 µM)	–
O=C(Nc1ccc(Br)cc1C(=O)O)c1cnc(Cl)c(Cl)c1	4 µg/mL (≈ 10.3 µM)	–
CCSc1cncc(C(=O)Nc2ccc(C#N)cc2C(=O)O)c1	1 µg/mL (≈ 3.05 µM)	–
N#Cc1ccc(NC(=O)c2cc3cccc(NC(=O)Cc4csc5ccccc45)c3[nH]2)c(C(=O)O)c1	0.25 µg/mL (≈ 0.506 µM)	–
O=C(O)c1cc(Cl)ccc1/C=C/c1cc(-c2ccccc2)on1	32 µg/mL (≈ 98.2 µM)	–
O=C(Nc1ccc(Br)cc1C(=O)O)c1ccc(SC2CCOCC2)nc1	1 µg/mL (≈ 2.29 µM)	–
COc1ccccc1-c1cc(C(=O)Nc2ccc(C#N)cc2C(=O)O)no1	0.125 µg/mL (≈ 0.344 µM)	–
Cc1noc(C)c1-c1cncc(C(=O)Nc2ccc(C#N)cc2C(=O)O)c1	16 µg/mL (≈ 44.2 µM)	–
Cc1c(C(=O)Nc2ccc(C#N)cc2C(=O)O)noc1-c1ccccc1	0.25 µg/mL (≈ 0.72 µM)	–
COc1cccc(-c2cnc(C(=O)Nc3ccc(Br)cc3C(=O)O)o2)c1	1 µg/mL (≈ 2.4 µM)	–
Cc1ccsc1-c1cc(C(=O)Nc2ccc(C#N)cc2C(=O)O)no1	0.125 µg/mL (≈ 0.354 µM)	–
Cc1cc(C(=O)Nc2ccc(C#N)cc2C(=O)O)c(C)o1	> 128 µg/mL	–
COc1ccc(C(=O)Nc2ccc(C#N)cc2C(=O)O)cn1	8 µg/mL (≈ 26.9 µM)	–
O=C(Nc1ccc(Cl)cc1C(=O)O)c1cc(-c2ccccc2F)on1	0.25 µg/mL (≈ 0.693 µM)	–
O=C(O)c1cc(Br)ccc1NC(=O)c1cc(-c2ccccc2)nc2ccccc12	64 µg/mL (≈ 143 µM)	–

Structure (SMILES)	MIC	SAUR 9218 MIC
CCCCOc1ccc(C(=O)Nc2cccc3cc(C(=O)Nc4ccc(C#N)cc4C(=O)O)[nH]c23)cc1	2 µg/mL (≈ 4.03 µM)	–
Cc1sc(C(=O)Nc2ccc(C#N)cc2C(=O)O)cc1S(=O)(=O)N(C)CC(O)c1ccccc1 (stereo not shown)	2 µg/mL (≈ 4 µM)	–
N#Cc1ccc(NC(=O)c2csc(-c3cccnc3)n2)c(C(=O)O)c1	> 128 µg/mL	–
N#Cc1ccc(NC(=O)c2cc(-c3ccccc3OCCCCCCl)on2)c(C(=O)O)c1	0.125 µg/mL (≈ 0.275 µM)	–
N#Cc1ccc(NC(=O)c2noc3cc(N)ccc23)c(C(=O)O)c1	0.5 µg/mL (≈ 1.55 µM)	–
Cc1sc(C(=O)Nc2ccc(C#N)cc2C(=O)O)cc1S(=O)(=O)N(C)C(C)C(O)c1ccccc1 (stereo not shown) [drawing 953]	–	32 µg/mL
O=C(Nc1ccc(I)cc1C(=O)O)c1cc(-c2ccccc2F)on1	0.5 µg/mL (≈ 1.11 µM)	–
Cn1c(C(=O)Nc2ccc(C#N)cc2C(=O)O)cc2cccc(OC3CCC3)c21	0.125 µg/mL (≈ 0.321 µM)	–
CCCCN(CCO)S(=O)(=O)c1cc(C(=O)Nc2ccc(C#N)cc2C(=O)O)sc1C	32 µg/mL (≈ 68.7 µM)	–
O=C(Nc1ccc(Br)cc1C(=O)O)c1cc(-c2ccccc2)on1	0.25 µg/mL (≈ 0.646 µM)	–
CCN(CC)CCN(CC)S(=O)(=O)c1cc(C(=O)Nc2ccc(C#N)cc2C(=O)O)sc1C	128 µg/mL (≈ 260 µM)	–
N#Cc1ccc(NC(=O)c2cc(-c3ccccc3Oc3ccc(-c4ccccc4)cc3)on2)c(C(=O)O)c1	16 µg/mL (≈ 31.9 µM)	–
O=C(Nc1ccc(Br)cc1C(=O)O)c1cc(-c2ccccc2)n[nH]1	> 128 µg/mL	–
O=C(Nc1ccc(Br)cc1C(=O)O)c1ccc2c(c1)OCO2	16 µg/mL (≈ 43.9 µM)	–
Cc1noc(C)c1-c1cc(C(=O)Nc2ccc(C#N)cc2C(=O)O)no1	1 µg/mL (≈ 2.84 µM)	–
N#Cc1ccc(NC(=O)c2cc3cccc(NC(=O)c4ccccc4)c3[nH]2)c(C(=O)O)c1	2 µg/mL (≈ 4.71 µM)	–
Cn1c(C(=O)Nc2cccc3cc(C(=O)Nc4ccc(C#N)cc4C(=O)O)n(C)c23)cc2ccccc21	0.125 µg/mL (≈ 0.254 µM)	–
N#Cc1ccc(NC(=O)c2cc3cccc(NC(=O)Cc4ccc5ccccc5c4)c3[nH]2)c(C(=O)O)c1	0.25 µg/mL (≈ 0.512 µM)	–
COc1ccccc1-c1cccc2cc(C(=O)Nc3ccc(C#N)cc3C(=O)O)n(C)c12	0.25 µg/mL (≈ 0.588 µM)	–
N#Cc1ccc(NC(=O)c2ccc(SCCCCO)nc2)c(C(=O)O)c1	2 µg/mL (≈ 5.38 µM)	–
Cn1c(C(=O)Nc2ccc(C#N)cc2C(=O)O)cc2ccc(OCC3CCC3)cc21	0.125 µg/mL (≈ 0.31 µM)	–
N#Cc1ccc(NC(=O)c2ccc(SCCCCN)nc2)c(C(=O)O)c1.O=C(O)C(F)(F)F	2 µg/mL	–

Structure (SMILES)	MIC	SAUR 9218 MIC
N#Cc1ccc(NC(=O)c2cncc(SCc3ccccc3)n2)c(C(=O)O)c1	64 µg/mL (≈ 164 µM)	–
N#Cc1ccc(NC(=O)c2nc3ccccc3[nH]2)c(C(=O)O)c1	4 µg/mL (≈ 13.1 µM)	–
CCC(C)Sc1ccc(C(=O)Nc2ccc(C#N)cc2C(=O)O)cn1 (stereo not shown)	0.5 µg/mL (≈ 1.41 µM)	–
O=C(Nc1ccc(Br)cc1C(=O)O)c1ncc(-c2ccc(F)cc2)o1	2 µg/mL (≈ 4.94 µM)	–
COc1cc2c(cc1OC)CN(S(=O)(=O)c1cc(C(=O)Nc3ccc(C#N)cc3C(=O)O)sc1C)CC2	8 µg/mL (≈ 14.8 µM)	–
N#Cc1ccc(NC(=O)c2noc3ccc(-c4ccccc4CO)cc23)c(C(=O)O)c1	0.5 µg/mL (≈ 1.21 µM)	–
CCCCN(CC#N)S(=O)(=O)c1cc(C(=O)Nc2ccc(C#N)cc2C(=O)O)sc1C	64 µg/mL (≈ 139 µM)	–
O=C(Nc1ccc(I)cc1C(=O)O)c1cnc(Cl)cn1	128 µg/mL (≈ 317 µM)	–
N#Cc1ccc(NC(=O)c2cc(-c3ccc(C(F)(F)F)cc3)on2)c(C(=O)O)c1	1 µg/mL (≈ 2.49 µM)	–
CC(=O)Nc1ccccc1-c1ccc2onc(C(=O)Nc3ccc(C#N)cc3C(=O)O)c2c1	0.5 µg/mL (≈ 1.14 µM)	–
N#Cc1cccc(-c2cnc(C(=O)Nc3ccc(Br)cc3C(=O)O)o2)c1	4 µg/mL (≈ 9.7 µM)	–
Cn1c(C(=O)Nc2ccc(C#N)cc2C(=O)O)cc2cccc(NC(=O)NCc3ccccc3)c21	0.125 µg/mL (≈ 0.267 µM)	–
O=C(Nc1ccc(Br)cc1C(=O)O)c1csc(S(=O)(=O)N2CCc3ccccc32)c1	2 µg/mL (≈ 3.94 µM)	–
Cc1sc(C(=O)Nc2ccc(C#N)cc2C(=O)O)cc1S(=O)(=O)N1CCN(c2ccc(F)cc2)CC1	16 µg/mL (≈ 30.3 µM)	–
Cc1ccc(C(=O)Nc2ccc(Br)cc2C(=O)O)s1	64 µg/mL (≈ 188 µM)	–
Cn1c(C(=O)Nc2ccc(C#N)cc2C(=O)O)cc2c(Br)cc(Br)c(N)c21	0.5 µg/mL (≈ 1.02 µM)	–
Cc1sc(C(=O)Nc2ccc(Br)cc2C(=O)O)cc1S(=O)(=O)N1CCc2ccc(Cl)cc21	1 µg/mL (≈ 1.8 µM)	–
Cc1c(C(=O)Nc2ccc(Br)cc2C(=O)O)noc1-c1ccccc1	0.5 µg/mL (≈ 1.25 µM)	–
Cc1ccccc1-c1cc(C(=O)Nc2ccc(I)cc2C(=O)O)no1	0.5 µg/mL (≈ 1.12 µM)	–
Cn1c(C(=O)Nc2ccc(C#N)cc2C(=O)O)cc2ccc(Br)c(N)c21	0.5 µg/mL (≈ 1.21 µM)	–
CCCCCn1c(C(=O)Nc2ccc(C#N)cc2C(=O)O)cc2ccccc21	2 µg/mL (≈ 5.33 µM)	–
N#Cc1ccc(/C=C/c2cc(-c3ccccc3)on2)c(C(=O)O)c1	64 µg/mL (≈ 202 µM)	–

Structure (SMILES)	MIC	SAUR 9218 MIC
N#Cc1ccc(NC(=O)c2cc(-c3ccccc3F)on2)c(C(=O)O)c1	0.125 µg/mL (≈ 0.356 µM)	–
N#Cc1ccc(NC(=O)c2ccc3c(c2)S(=O)(=O)N(c2ccc(Cl)cc2)CC3)c(C(=O)O)c1	0.25 µg/mL (≈ 0.519 µM)	–
Cc1nc(S(=O)(=O)Nc2cccc3cc(C(=O)Nc4ccc(C#N)cc4C(=O)O)n(C)c23)cn1C	1 µg/mL (≈ 2.03 µM)	–
CN(C)c1ccc(CNS(=O)(=O)c2cc(C(=O)Nc3ccc(Br)cc3C(=O)O)cs2)cc1	64 µg/mL (≈ 119 µM)	–
Cn1c(C(=O)Nc2ccc(C#N)cc2C(=O)O)cc2cccc(-c3ccc(C(C)(C)C)cc3)c21	4 µg/mL (≈ 8.86 µM)	–
N#Cc1ccc(NC(=O)c2cc3cccc(NC(=O)Cc4ccc(Cl)c(Cl)c4)c3[nH]2)c(C(=O)O)c1	0.125 µg/mL (≈ 0.246 µM)	–
COc1ccc2oc(C(=O)Nc3ccc(C#N)cc3C(=O)O)cc2c1	2 µg/mL (≈ 5.95 µM)	–
O=C(O)c1cc(Cl)ccc1NC(=O)c1cc2ccccc2n1CC1CCCCC1	0.5 µg/mL (≈ 1.22 µM)	–
COCC(OC)C(Cc1cnc(C(=O)Nc2ccc(Br)cc2C(=O)O)cn1)OC (stereo not shown)	> 128 µg/mL	–
CC1=C(C(=O)Nc2ccc(C#N)cc2C(=O)O)Cc2ccccc21	4 µg/mL (≈ 12.6 µM)	–
CS(=O)(=O)c1ccc(-c2cnc(C(=O)Nc3ccc(C#N)cc3C(=O)O)cn2)cc1	> 128 µg/mL	–
C#Cc1cncc(C(=O)Nc2ccc(C#N)cc2C(=O)O)c1	16 µg/mL (≈ 54.9 µM)	–
CCOc1ccccc1-c1cc(C(=O)Nc2ccc(C#N)cc2C(=O)O)no1	0.125 µg/mL (≈ 0.331 µM)	–
O=C(Nc1ccc(Br)cc1C(=O)O)c1ccc(Br)s1	16 µg/mL (≈ 39.5 µM)	–
O=C(O)c1cc(Br)ccc1NC(=O)c1c[nH]c2ccccc12	4 µg/mL (≈ 11.1 µM)	–
Cn1c(C(=O)Nc2ccc(C#N)cc2C(=O)O)cc2ccc(-c3ccccc3C(F)(F)F)cc21	0.125 µg/mL (≈ 0.27 µM)	–
N#Cc1ccc(NC(=O)C2=NOC(c3ccccc3)C2)c(C(=O)O)c1 (stereo not shown)	4 µg/mL (≈ 11.9 µM)	–
CCOCC(O)COc1cccc2cc(C(=O)Nc3ccc(C#N)cc3C(=O)O)n(C)c12 (stereo not shown)	0.25 µg/mL (≈ 0.571 µM)	–
N#Cc1ccc(NC(=O)c2cnccn2)c(C(=O)O)c1	128 µg/mL (≈ 477 µM)	–
O=C(Nc1ccc(Br)cc1C(=O)O)c1cc(-c2ccccc2F)on1	0.5 µg/mL (≈ 1.23 µM)	–
CC(C)CN1C(=O)c2ccc(C(=O)Nc3ccc(Br)cc3C(=O)O)cc2C1=O	2 µg/mL (≈ 4.49 µM)	–
N#Cc1ccc(NC(=O)c2cc3cccc(NC(=O)c4ccc(Cl)nc4)c3[nH]2)c(C(=O)O)c1	1 µg/mL (≈ 2.17 µM)	–
